Measured values published in US11084852B2, “Ubiquitin interacting motif peptides as therapeutics” (OKLAHOMA MEDICAL RESEARCH FOUNDATION, priority 2015, dated 2021).
Positions of bridges follow the written chain, without caps; N, C: chain ends. Non-standard residues stand in square brackets, D forms with d. Residues, ends and D or L forms follow the SMILES beside them. No end group written: not given here. *: point of attachment. FITC = O=C1OC2(c3ccc(O)cc3Oc3cc(O)ccc32)c2ccc(NC(=S)*)cc21

Columns and labels:
[1] = Toxicity analysis of UPI peptide, plasma biomarkers; assay type: in vivo, mice; design: ALB: unit not given here; conditions: for ALB: wild type mice, i.v. every second day up to 3 months
Protocol: Age and gender matched wild type mice were intravenously injected with PBS (Control) or different concentration of UPI peptide every second day for up to 3 months. Plasma biochemical parameters were evaluated by the UT-Southwestern Medical Center Core Facility in Dallas, Tex.

[2] = tested on: Lewis lung carcinoma (LLC) tumors; experiment: Subcutaneous LLC tumor model; design: species or system mice; conditions: mouse, in vivo
Excerpt: C56BL/6 mice and TRAMP prostate cancer models were obtained from Jackson Laboratory. SCID/NOD immune-deficient mice were purchased from Charles River Labs (Wilmington, Mass.). WT-Flk, EC-iDKO, EC-iDKO-Flk and EC-iDKO-Notch mice were generated by crossing conditional double knockout mice (EC-iDKO) with Flk-1^fl/fl or NICD^LSL mice as described in (FIGS. 13A-D) (Pasula et al., 2012; Tessneer et al., 2014). All animal protocols have been approved by the IACUC in Oklahoma Medical Research Foundation. Animal tumor models were established as follows: • (1) Subcutaneous Tumor Models (LLC, melanoma B16 and glioma U87/SCID): LLC, melanoma and glioma tumor models were established as previously described (Pasula et al., 2012). Synthetic peptides were administered at 10 mg/kg intravenously every second day beginning after small tumors were established (20-50 mm^3; approximately 12 days post implantation). Tumor volumes were monitored every other day until euthanized following IACUC tumor scoring system. • (2) TRAMP Prostate Tumor Model (Transgenic Adenocarcinoma of Mouse Prostate). […] Mortality rates were recorded. Prostate tumors were analyzed by weighing genitourinary tract (GU), H&E staining, IHC, IF staining and Western blotting as previously described (Pasula et al., 2012; Tessneer et al., 2013). Lymph nodes, lung, liver, spleen and bones were similarly analyzed for metastasis. • (3) B16 Melanoma Metastasis Model. […] Mice were sacrificed after 5 weeks and tissues (including lung, liver and lymph nodes, etc.) were harvested and analyzed for metastasis by gross morphology, H&E, IHC or IF staining, as well as Western blotting. • (4) Orthotopical Glioma Tumor Models (U87/SCID and GL261/C56BL/6). […] Tumors were monitored by MRI as previously described (Pasula et al., 2012). […] Tumor volume was analyzed by MRI every other day until the mice died or were euthanized following IACUC tumor scoring system. Mortality rates were recorded. […]

atherosclerosis lesion = experiment: Carotid atherosclerotic mouse model; assay type: in vivo
Excerpt: (§1) FIGS. 25A-E. Therapeutic potential in atherosclerosis animal models. (FIG. 25A) Targeting lyp-UIM peptide to atheroma by FITC conjugated peptide. (FIG. 25B). […] (FIG. 25C) Quantification for FIG. 25B, red bars represent lesion area by percentile; green bars represent macrophage percentile in different treatment. P values is indicated in the graphs.

atherosclerotic lesion = experiment: ApoE-/- mouse atherosclerosis model; conditions: in vivo
Excerpt: as §1

[3] = Kinetic analysis and FUPI peptide distribution in vivo in LLC or B16 tumor-bearing mice
Protocol: FIGS. 7A-C. Pharmacokinetics of UPI peptide in ex vivo plasma and tumor vessels. (FIG. 7A) Biotinylated-UPI peptide was incubated in ex vivo plasma at 1 μg/ml concentration. The remaining biotin-labeled UPI peptide was quantified by ELISA as indicated at different time point, n=5; (FIG. 7B) FUPI peptide (10 mg/kg, one injection) was i.v.-injected into mice bearing B16 tumors. A time course was scheduled to sacrifice mice as indicated from 2-48 hrs.
FIG. 8. FUPI peptide specifically homes to tumors. B16 tumor-bearing mice were sacrificed at 24-hr time point after control (PBS) or FUPI peptide injection (10 mg/kg, i.v-injection). Tumor and major organs were stained with CD31 (red) and imaged at red channel (CD31), blue channel (DAPI) and green channel (FUPI). Note that green (FITC) is seen only in tumors. […] Other major organs (liver, lung, heart, spleen, kidney, colon, brain, etc) are free of green color, n=4; scale bar: 200 μm.
LLC or B16 tumor-bearing mice were intravenously injected with 20 mg/kg FUPI peptide then sacrificed at different time points. […] FITC and CD31 fluorescent intensity was quantified using Metamorph software. The number of FUPI and CD31-positive vessels were counted and presented as a percentage of FUPI-positive vessels-to-total CD31-positive vessels.

HUVEC^αvβ3 cells = experiment: Targeting and localization of FITC-conjugated peptides in cultured HUVEC; assay type: cell-based, human
Protocol: FIGS. 6A-E. Targeting and localization of UPI peptides in cultured HUVEC^αvβ3. (FIGS. 6A-C) HUVECs were co-transfected with integrins αv and β3 plasmids by electroporation (Nucleofactor device, Lonza), generating HUVEC^αvβ3 cells. 10 μM FUPI (FITC-conjugated UPI) peptide was added to HUVEC^αvβ3 cells or pcDNA transfected control HUVECs.
To ensure targeting specificity and efficacy of the UPI, the inventors treated HUVEC overexpressing αvβ3 integrin (HUVEC^αvβ3) with FITC-conjugated UPI (FUPI) or AP-UIM (FITC-AP-UIM) (Table 2). Normal quiescent endothelial cells, such as HUVEC, express endogenous αvβ3 integrin. However, compared to tumor endothelial cells this expression is considerably lower. By overexpressing αvβ3 integrin in HUVEC, the inventors distinguished peptide targeting to endothelial cells in quiescent versus tumor vasculature. Overexpression of αvβ3 integrin was monitored by FACS and Western blotting (FIGS. 6A-C). […] Given the selective nature of the UPI peptide in vitro, the inventors next validated its tumor vascular-targeting efficacy in vivo after intravenous (i.v.) administration into Lewis lung carcinoma (LLC) and B16F10 (B16) melanoma subcutaneous tumor-bearing mice. […]

[4] = cited from earlier work
gliomas = conditions: before, at the time of or after tumor implantation; cited from earlier work

`CC[C@@H](C)[C@@H](NC(=O)[C@@H](CS)NC(=O)CNC(=O)[C@@H](CCSC)NC(=O)[C@@H](CCC(=O)O)NC(=O)[C@@H](CCC(=O)O)NC(=O)[C@@H](CCCCN)NC(=O)[C@@H](CO)NC(=O)[C@@H](CCSC)NC(=O)[C@@H](C)NC(=O)[C@@H](CC(C)C)NC(=O)[C@@H](C)NC(=O)[C@@H](CC(C)C)NC(=O)[C@@H](CCC(N)=O)NC(=O)[C@@H](CC(C)C)NC(=O)[C@@H](CCC(N)=O)NC(=O)[C@@H](CC(C)C)NC(=O)[C@@H](CCC(=O)O)NC(=O)[C@@H](CCC(=O)O)NC(=O)[C@@H](CCC(=O)O)NC(=O)CNC(=O)[C@H](N)CO)C(=O)N[C@H](CCCCN)C(=O)N[C@H](CO)C(=O)N[C@H](CCCCN)C(=O)N[C@H](CCCNC(=N)N)C(=O)N[C@H](CCCCN)C(=O)N[C@@H]1CSSC[C@H](C(=O)O)NC(=O)[C@@H](CC(=O)O)NC(=O)[C@H]2CCCN2C(=O)CNC(=O)[C@@H](CCCCN)NC(=O)[C@@H](CC(=O)O)NC(=O)CNC(=O)[C@@H](CCCNC(=N)N)NC1=O` [UPI peptide] (H-[dS]G[dE][dE][dE][dL][dQ][dL][dQ][dL][dA][dL][dA][dM][dS][dK][dE][dE][dM]G[dC][dI][dK][dS][dK][dR][dK][dC][dR]G[dD][dK]G[dP][dD][dC]-OH; disulfide 28-36; N-terminus and C-terminus assumed) showed an ALT ([1]; 10 mg/kg) of 63.5 ± 10.8 U/L, an AST ([1]; 10 mg/kg) of 62.3 ± 3.6 U/L and a BUN ([1]; 10 mg/kg) of 18.0 ± 0.8 mg/dL. The CK ([1]; 10 mg/kg) was 163.5 ± 50.0 U/L, the CREA ([1]; 10 mg/kg) was 0.173 ± 0.02 mg/dL and the GGT ([1]; 10 mg/kg) was less than 5 U/L. For the same compound, the LDH ([1]; 10 mg/kg) was 397.8 ± 26.0 U/L, the TBIL ([1]; 10 mg/kg) was less than 0.01 mg/dL and the ALT ([1]; 25 mg/kg) was 65.3 ± 4.0 U/L. It also gave an AST ([1]; 25 mg/kg) of 55.0 ± 5.3 U/L, a BUN ([1]; 25 mg/kg) of 18.7 ± 2.5 mg/dL and a CK ([1]; 25 mg/kg) of 165.7 ± 8.6 U/L. For the same compound, the CREA ([1]; 25 mg/kg) was 0.160 ± 0.02 mg/dL, the GGT ([1]; 25 mg/kg) was less than 5 U/L and the LDH ([1]; 25 mg/kg) was 365.7 ± 77.9 U/L. For the same compound, the TBIL ([1]; 25 mg/kg) was less than 0.01 mg/dL, the ALT ([1]; 50 mg/kg) was 71.7 ± 6.0 U/L and the AST ([1]; 50 mg/kg) was 52.0 ± 4.4 U/L. It also gave a BUN ([1]; 50 mg/kg) of 21.0 ± 2.0 mg/dL, a CK ([1]; 50 mg/kg) of 153.7 ± 33.9 U/L and a CREA ([1]; 50 mg/kg) of 0.180 ± 0.02 mg/dL. It also gave a GGT ([1]; 50 mg/kg) of less than 5 U/L, an LDH ([1]; 50 mg/kg) of 481.5 ± 12.1 U/L and a TBIL ([1]; 50 mg/kg) of less than 0.01 mg/dL. The “kidney, liver or muscle functions (biomarker analysis, PBS vs UPI peptide-treated mice)” value ([1]; Table 3) was “no statistical differences in kidney, liver or muscle functions”, the ALB ([1]; 10 mg/kg) was 1.98 ± 0.1 and the ALB ([1]; 25 mg/kg) was 2.0 ± 0.1. For the same compound, the ALB ([1]; 50 mg/kg) was 2.2 ± 0.2.

For “QEEEELQLALALSQSEAEEKMGCIKSKRKCRGDKGPDC [Hrs-UIM]”, the “tumor growth in LLC tumor-bearing mice, variant peptides” value [2] was “neither Eps15-UIM nor Hrs-UIM peptides affected tumor growth”.

For “CGNKRTRGCSGEEELQLQLALAMSKEE [Lyp-UIM peptide]”, the macrophage infiltration (atherosclerosis lesion; mouse, in vivo) was “reduced macrophage infiltration”, the atherosclerosis lesion development (atherosclerosis lesion; western diet) was “greatly reduced atherosclerosis lesion development” and the “atherosclerotic lesion development (arch)” value (atherosclerotic lesion) was “significantly attenuated atherosclerotic lesion development (arch)”. For the same compound, the “atherosclerotic lesion development (root)” value (atherosclerotic lesion) was “significantly attenuated atherosclerotic lesion development (root)”.

For “FUPI: FITC-conjugated UPI peptide ({FITC}-[dS]G[dE][dE][dE][dL][dQ][dL][dQ][dL][dA][dL][dA][dM][dS][dK][dE][dE][dM]G[dC][dI][dK][dS][dK][dR][dK][dC][dR]G[dD][dK]G[dP][dD][dC]; disulfide 28-36 (inferred); not fully specified)”, the “retention within vessels of tumors after injection” value ([3]; B16 melanoma tumors, one i.v. injection) was “up to 48 hours”, the “tissue distribution after intravenous injection” value ([3]; subcutaneous LLC or B16 melanoma tumors) was “significant concentration within tumor vasculature, but not other major organs” and the “peptide accumulation in HUVEC^αvβ3 versus HUVEC” value (HUVEC^αvβ3 cells; FITC-conjugated peptide, 10 μM, 15 hr) was “accumulated selectively in HUVEC^αvβ3, but not in HUVEC alone”. The “intracellular localization of accumulated peptide” value (HUVEC^αvβ3 cells; HUVEC^αvβ3) was “highly enriched at the plasma membrane”.

In the case of `CC(C)(C)[N+]([O-])=Cc1ccccc1` [PBN, phenyl N-tert-butyl nitrone], the tissue distribution ([4]; rat, in vivo) is given as “readily and rapidly distributed almost equally to all tissues”, the half-life ([4]; rats) is given as “about 132 minutes” and the “tumor development (gliomas)” value (gliomas) is given as “able to control tumor development”.

With “SEEDMIEWAKRESEREEEQRMGCIKSKRKCRGDKGPDC [Eps15-UIM]” the “tumor growth in LLC tumor-bearing mice, variant peptides” value [2] was “neither Eps15-UIM nor Hrs-UIM peptides affected tumor growth”.
